Reference: US20200138825A1, “METHOD OF TREATING MALIGNANT RHABDOID TUMOR OF THE OVARY (MRTO)/SMALL CELL CANCER OF THE OVARY OF THE HYPERCALCEMIC TYPE(SCCOHT) WITH AN EZH2 INHIBITOR” (Epizyme, Inc., priority 2015, published 2020)

Legend:
Type in all cases: cell-based
SCCOHT cell line Bin-67 = experiment: 14 day proliferation study in Bin-67; conditions: 336 h; Bin-67, 14 day proliferation, 0.01-10 μM
Protocol: FIG. 13C is a graph displaying the results of a 14 day proliferation study with Compound D in the SMARCA4- and SMARCA2-negative small cell carcinoma of the ovary, hypercalcemic type (SCCOHT) cell line Bin-67. Growth curves are shown for 8 different treatment conditions ranging from 0.01-10 μM.
(§1) A panel of ovarian cancer cell lines of different histologies was subjected to proliferation assays in 2-D tissue culture for 14 days in the presence of increasing concentrations of an EZH2 inhibitor. Selected cell lines were also tested in 3-D cultures. […] In contrast, mutations in ARID1A, another SWI/SNF component, were not observed to broadly confer sensitivity to EZH2 inhibition in ovarian cancer cell lines in either 2-D or 3-D in vitro assays.

NClH1793 = experiment: EZH2 inhibition sensitivity, NClH1793; conditions: SMARCA4 Mutations, read-out: Compound D IC50
Description: (§2) Sensitivity to EZH2 inhibition was examined in various cancer cell lines with similar mutations or loss of SWI/SNF components. Table 7 summarizes the EZH2 activity in additional SWI/SNF altered cancers, including lung adenocarcinoma.

NClH2110 = experiment: EZH2 inhibition sensitivity, NClH2110; conditions: no mutations or info not available in SMARCA2, SMARCA4, KRAS, read-out: Compound D IC50
Description: as §2

[1] = system: ARID1A-mutated ovarian cell lines; experiment: 3D growth assay (Scivax Nanoculture), ARID1A-mutated ovarian cell lines; conditions: after 14 days
Protocol: 3D assays were performed using the Scivax Nanoculture technology whereby the micro-patterned scaffold mimics the ECM.
as §1

SCCOHT cell lines = experiment: 14-day proliferation assays, SCCOHT cell lines; conditions: 336 h, three SCCOHT cell lines
Protocol: as §1

Calu-6 = experiment: EZH2 inhibition sensitivity, Calu-6; conditions: Homo sapiens, KRAS Mutations, read-out: Compound D IC50
Description: as §2

NClH1993 = experiment: EZH2 inhibition sensitivity, NClH1993; conditions: no mutations or info not available in SMARCA2, SMARCA4, KRAS, read-out: Compound D IC50
Description: as §2

A549 = experiment: EZH2 inhibition sensitivity, A549 (Proquinase 3D); conditions: Homo sapiens, Proquinase 3D IC50, SMARCA4 Mutations, KRAS Mutations, read-out: Compound D IC50
Description: as §2

NCl-H441 = experiment: EZH2 inhibition sensitivity, NCl-H441 (Proquinase 3D); conditions: Proquinase 3D IC50, KRAS Mutations, read-out: Compound D IC50
Description: as §2

NClH1563 = experiment: EZH2 inhibition sensitivity, NClH1563; conditions: no mutations or info not available in SMARCA2, SMARCA4, KRAS, read-out: Compound D IC50
Description: as §2

H3K27me3 in Bin-67 cells = experiment: Western Blot of H3K27me3 levels in Bin-67 cells; conditions: day 14, all concentrations
H460 = experiment: EZH2 inhibition sensitivity, H460 (Proquinase 3D); conditions: Homo sapiens, NCI-H460, Proquinase 3D IC50, KRAS Mutations, read-out: Compound D IC50
Description: as §2

NClH838 = experiment: EZH2 inhibition sensitivity, NClH838; conditions: SMARCA4 Mutations, read-out: Compound D IC50
Description: as §2

NClH2122 = experiment: EZH2 inhibition sensitivity, NClH2122; conditions: KRAS Mutations, read-out: Compound D IC50
Description: as §2

HCC827 = experiment: EZH2 inhibition sensitivity, HCC827 (Proquinase 3D); conditions: Homo sapiens, Proquinase 3D IC50, no mutations or info not available in SMARCA2, SMARCA4, KRAS, read-out: Compound D IC50
Description: as §2

A427 = experiment: EZH2 inhibition sensitivity, A427; conditions: Homo sapiens, A-427, SMARCA2 mRNA/protein loss, SMARCA4 Mutations, KRAS Mutations, read-out: Compound D IC50
Description: as §2

[2] = system: ARID1A mutated ovarian cell lines; experiment: Long term 2D proliferation assay, ARID1A mutated ovarian cell lines; conditions: day 14, ARID1A mutated ovarian cell lines
Protocol: (§3) FIG. 13B is a pair of graphs depicting the results of a long term 2D proliferation assay for Compound D in SMARCA4 and ARID1A ovarian cell lines. The day 14 IC50 values are shown.
as §1

NCl-H1299 = experiment: EZH2 inhibition sensitivity, NCl-H1299; conditions: SMARCA4 Mutations, read-out: Compound D IC50
Description: as §2

[3] = system: SMARCA4-negative ovarian cell lines; experiment: Long term 2D proliferation assay, SMARCA4-negative ovarian cell lines; conditions: day 14, SMARCA4-negative cell lines
Protocol: as §3, §1

Calu-3 = experiment: EZH2 inhibition sensitivity, Calu-3; conditions: Homo sapiens, no mutations or info not available in SMARCA2, SMARCA4, KRAS, read-out: Compound D IC50
Description: as §2

NClH1734 = experiment: EZH2 inhibition sensitivity, NClH1734; conditions: KRAS Mutations, read-out: Compound D IC50
Description: as §2

NClH1373 = experiment: EZH2 inhibition sensitivity, NClH1373; conditions: KRAS Mutations, read-out: Compound D IC50
Description: as §2

NCl-H522 = experiment: EZH2 inhibition sensitivity, NCl-H522; conditions: SMARCA2 mRNA/protein loss, SMARCA4 Mutations, KRAS No mutations or info not available, read-out: Compound D IC50
Description: as §2

NCl-H23 = experiment: EZH2 inhibition sensitivity, NCl-H23; conditions: SMARCA2 mRNA/protein loss, SMARCA4 Mutations, KRAS Mutations, read-out: Compound D IC50
Description: as §2

IC50 (NClH1793): 10 µM | IC50 (NClH2110): 10 µM | IC50 (Calu-6): 0.001 µM | IC50 (NClH1993): 10 µM | IC50 (A549): 10 µM | IC50 (NCl-H441): 10 µM | IC50 (NClH1563): 10 µM | IC50 (H460): 10 µM | IC50 (NClH838): 10 µM | IC50 (NClH2122): 10 µM | IC50 (HCC827): 10 µM | IC50 (A427): 2.3 µM | IC50 (NCl-H1299): 10 µM | IC50 (Calu-3): 10 µM | IC50 (NClH1734): 10 µM | IC50 (NClH1373): 10 µM | IC50 (NCl-H522): 1.14 µM | IC50 (NCl-H23): 10 µM
Structure (SMILES): CCN(c1cc(-c2ccc(CN3CCOCC3)cc2)cc(C(=O)NCc2c(C)cc(C)[nH]c2=O)c1C)[C@H]1CC[C@H](N(C)C)CC1 [Compound D]
IC50 (SCCOHT cell line Bin-67): 0.01 µM | 3D growth effects [1]: No effects were observed | IC50 (SCCOHT cell lines): 0.005 to 0.017 µM | H3K27me3 levels (H3K27me3 in Bin-67 cells): completely reduced | anti-proliferative effects [2]: do not | anti-proliferative effects [3]: anti-proliferative effects
